The text below walks through data of ChEMBL document CHEMBL1142871, “Flipped out: structure-guided design of selective pyrazolylpyrrole ERK inhibitors” (J Med Chem, 2007).

In test [1] the target is Mitogen-activated protein kinase 1 (Homo sapiens, UniProt P28482). Briefly: Inhibition of ERK2 by spectrophotometric coupled-enzyme assay.
In test [2] the target is Mitogen-activated protein kinase 10 (Homo sapiens, UniProt P53779). Nature of the test: Inhibition of JNK3 at 10 nM by spectrophotometric coupled-enzyme assay.
Sequence of Mitogen-activated protein kinase 10 (P53779 whole entry): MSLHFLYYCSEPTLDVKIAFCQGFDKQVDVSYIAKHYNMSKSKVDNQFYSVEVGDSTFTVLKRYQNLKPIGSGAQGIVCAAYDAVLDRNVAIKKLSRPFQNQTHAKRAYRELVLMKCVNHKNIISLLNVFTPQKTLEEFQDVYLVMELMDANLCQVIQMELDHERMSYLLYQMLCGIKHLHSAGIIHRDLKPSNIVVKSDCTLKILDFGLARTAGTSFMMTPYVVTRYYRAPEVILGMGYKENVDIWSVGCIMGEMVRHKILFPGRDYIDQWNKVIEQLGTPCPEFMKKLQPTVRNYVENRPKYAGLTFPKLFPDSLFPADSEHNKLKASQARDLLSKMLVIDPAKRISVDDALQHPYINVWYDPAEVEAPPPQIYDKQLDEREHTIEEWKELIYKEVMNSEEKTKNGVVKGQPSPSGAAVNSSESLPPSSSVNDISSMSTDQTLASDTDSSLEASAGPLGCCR
Test [3] has as its target cAMP-dependent protein kinase (PKA) (Homo sapiens, UniProt P22694+P17612+P22612). Briefly: Inhibition of PKA. The class given is protein assay.
Test [4] has as its target Mitogen-activated protein kinase 14 (Homo sapiens, UniProt Q16539). Briefly: Inhibition of p38 alpha kinase.
For test [5], the target named is Dual specificity mitogen-activated protein kinase kinase 1 (Homo sapiens, UniProt Q02750). Nature of the test: Inhibition of MEK1.
Sequence of Dual specificity mitogen-activated protein kinase kinase 1 (Q02750 whole entry): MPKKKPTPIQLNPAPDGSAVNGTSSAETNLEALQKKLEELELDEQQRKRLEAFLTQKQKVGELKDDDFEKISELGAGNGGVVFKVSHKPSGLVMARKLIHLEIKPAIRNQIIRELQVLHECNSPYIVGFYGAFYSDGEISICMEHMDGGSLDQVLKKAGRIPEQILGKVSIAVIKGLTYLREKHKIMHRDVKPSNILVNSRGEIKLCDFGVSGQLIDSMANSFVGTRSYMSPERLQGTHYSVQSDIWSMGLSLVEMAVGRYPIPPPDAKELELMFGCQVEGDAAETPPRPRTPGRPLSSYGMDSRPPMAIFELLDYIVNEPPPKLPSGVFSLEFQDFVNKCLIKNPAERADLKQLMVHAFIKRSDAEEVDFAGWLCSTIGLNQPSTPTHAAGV
In test [6] the target is RAC-gamma serine/threonine-protein kinase (Homo sapiens, UniProt Q9Y243). Nature of the test: Inhibition of AKT3 kinase.
Sequence of RAC-gamma serine/threonine-protein kinase (Q9Y243 whole entry): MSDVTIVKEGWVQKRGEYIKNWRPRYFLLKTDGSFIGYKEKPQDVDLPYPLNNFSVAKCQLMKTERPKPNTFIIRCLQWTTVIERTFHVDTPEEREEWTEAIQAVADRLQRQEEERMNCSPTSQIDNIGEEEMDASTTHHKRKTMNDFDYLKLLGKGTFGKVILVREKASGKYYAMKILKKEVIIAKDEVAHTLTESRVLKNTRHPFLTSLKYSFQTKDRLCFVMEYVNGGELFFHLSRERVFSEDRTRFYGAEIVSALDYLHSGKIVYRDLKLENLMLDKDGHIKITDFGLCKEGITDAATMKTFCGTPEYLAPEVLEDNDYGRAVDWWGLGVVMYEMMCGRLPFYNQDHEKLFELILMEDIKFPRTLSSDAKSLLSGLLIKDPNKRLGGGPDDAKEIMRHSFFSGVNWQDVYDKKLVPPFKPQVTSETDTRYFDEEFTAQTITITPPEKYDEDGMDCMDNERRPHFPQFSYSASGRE
In test [7] the target is T1, Receptor-type tyrosine-protein kinase FLT3 (Homo sapiens, UniProt P36888).
T1 sequence (P36888 whole entry): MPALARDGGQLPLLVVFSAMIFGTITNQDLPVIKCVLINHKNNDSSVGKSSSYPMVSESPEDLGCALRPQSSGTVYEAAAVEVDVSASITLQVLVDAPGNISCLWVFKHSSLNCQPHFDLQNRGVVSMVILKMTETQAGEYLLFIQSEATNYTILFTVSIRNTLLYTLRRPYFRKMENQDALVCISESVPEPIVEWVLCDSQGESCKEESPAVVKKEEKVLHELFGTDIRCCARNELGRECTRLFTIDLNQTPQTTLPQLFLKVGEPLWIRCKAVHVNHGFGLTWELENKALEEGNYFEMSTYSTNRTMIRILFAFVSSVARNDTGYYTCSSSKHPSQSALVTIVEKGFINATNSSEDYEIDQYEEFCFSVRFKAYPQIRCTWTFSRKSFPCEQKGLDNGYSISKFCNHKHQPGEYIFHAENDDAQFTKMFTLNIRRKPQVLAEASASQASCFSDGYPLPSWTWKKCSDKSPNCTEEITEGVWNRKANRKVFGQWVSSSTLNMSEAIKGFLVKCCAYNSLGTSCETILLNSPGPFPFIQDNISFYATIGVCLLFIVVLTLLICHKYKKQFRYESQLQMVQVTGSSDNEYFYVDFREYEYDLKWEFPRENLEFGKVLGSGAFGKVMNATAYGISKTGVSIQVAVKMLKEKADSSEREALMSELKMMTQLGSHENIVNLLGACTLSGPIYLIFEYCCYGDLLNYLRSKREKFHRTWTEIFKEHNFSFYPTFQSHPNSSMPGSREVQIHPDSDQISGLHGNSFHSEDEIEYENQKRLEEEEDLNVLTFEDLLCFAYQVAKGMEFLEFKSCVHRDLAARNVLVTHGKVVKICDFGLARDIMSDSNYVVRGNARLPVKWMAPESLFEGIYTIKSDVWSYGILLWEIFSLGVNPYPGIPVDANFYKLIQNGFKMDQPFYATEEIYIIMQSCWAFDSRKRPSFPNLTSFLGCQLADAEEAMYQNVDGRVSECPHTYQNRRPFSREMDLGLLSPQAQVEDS
Nature of the test: Inhibition of FLT3 kinase.

In the next test the test system is COLO 205. Briefly: Antiproliferative activity against Colo205 cells measured by [3H]thymidine incorporation after 48 hrs. The class given is functional, cell-based. Conditions: Homo sapiens.
The target in test [8] is Cyclin-dependent kinase 2 (Homo sapiens, UniProt P24941). Nature of the test: Inhibition of CDK2.
The target in test [9] is Glycogen synthase kinase-3 (Homo sapiens, UniProt P49840+P49841). Briefly: Inhibition of GSK3. The class given is protein assay.
The target of test [10] is Proto-oncogene tyrosine-protein kinase Src (Homo sapiens, UniProt P12931). Nature of the test: Inhibition of SRC kinase.
Sequence of Proto-oncogene tyrosine-protein kinase Src (P12931 2-536 limits assumed): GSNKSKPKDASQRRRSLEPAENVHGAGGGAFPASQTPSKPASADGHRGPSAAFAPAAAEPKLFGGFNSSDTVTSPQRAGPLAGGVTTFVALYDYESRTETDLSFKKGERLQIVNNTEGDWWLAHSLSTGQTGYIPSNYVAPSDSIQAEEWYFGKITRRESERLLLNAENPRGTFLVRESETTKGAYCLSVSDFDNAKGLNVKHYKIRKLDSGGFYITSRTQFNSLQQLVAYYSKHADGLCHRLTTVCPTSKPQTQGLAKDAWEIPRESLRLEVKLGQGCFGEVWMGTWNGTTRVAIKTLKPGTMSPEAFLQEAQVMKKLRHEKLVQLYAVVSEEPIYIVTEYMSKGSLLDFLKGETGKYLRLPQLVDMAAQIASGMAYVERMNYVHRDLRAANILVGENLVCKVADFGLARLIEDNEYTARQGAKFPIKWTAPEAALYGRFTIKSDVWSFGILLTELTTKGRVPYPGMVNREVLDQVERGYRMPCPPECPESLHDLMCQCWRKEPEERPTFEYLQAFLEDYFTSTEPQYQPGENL
The target in test [11] is Vascular endothelial growth factor receptor 2 (Homo sapiens, UniProt P35968). Briefly: Inhibition of KDR kinase.
Sequence of Vascular endothelial growth factor receptor 2 (P35968 whole entry): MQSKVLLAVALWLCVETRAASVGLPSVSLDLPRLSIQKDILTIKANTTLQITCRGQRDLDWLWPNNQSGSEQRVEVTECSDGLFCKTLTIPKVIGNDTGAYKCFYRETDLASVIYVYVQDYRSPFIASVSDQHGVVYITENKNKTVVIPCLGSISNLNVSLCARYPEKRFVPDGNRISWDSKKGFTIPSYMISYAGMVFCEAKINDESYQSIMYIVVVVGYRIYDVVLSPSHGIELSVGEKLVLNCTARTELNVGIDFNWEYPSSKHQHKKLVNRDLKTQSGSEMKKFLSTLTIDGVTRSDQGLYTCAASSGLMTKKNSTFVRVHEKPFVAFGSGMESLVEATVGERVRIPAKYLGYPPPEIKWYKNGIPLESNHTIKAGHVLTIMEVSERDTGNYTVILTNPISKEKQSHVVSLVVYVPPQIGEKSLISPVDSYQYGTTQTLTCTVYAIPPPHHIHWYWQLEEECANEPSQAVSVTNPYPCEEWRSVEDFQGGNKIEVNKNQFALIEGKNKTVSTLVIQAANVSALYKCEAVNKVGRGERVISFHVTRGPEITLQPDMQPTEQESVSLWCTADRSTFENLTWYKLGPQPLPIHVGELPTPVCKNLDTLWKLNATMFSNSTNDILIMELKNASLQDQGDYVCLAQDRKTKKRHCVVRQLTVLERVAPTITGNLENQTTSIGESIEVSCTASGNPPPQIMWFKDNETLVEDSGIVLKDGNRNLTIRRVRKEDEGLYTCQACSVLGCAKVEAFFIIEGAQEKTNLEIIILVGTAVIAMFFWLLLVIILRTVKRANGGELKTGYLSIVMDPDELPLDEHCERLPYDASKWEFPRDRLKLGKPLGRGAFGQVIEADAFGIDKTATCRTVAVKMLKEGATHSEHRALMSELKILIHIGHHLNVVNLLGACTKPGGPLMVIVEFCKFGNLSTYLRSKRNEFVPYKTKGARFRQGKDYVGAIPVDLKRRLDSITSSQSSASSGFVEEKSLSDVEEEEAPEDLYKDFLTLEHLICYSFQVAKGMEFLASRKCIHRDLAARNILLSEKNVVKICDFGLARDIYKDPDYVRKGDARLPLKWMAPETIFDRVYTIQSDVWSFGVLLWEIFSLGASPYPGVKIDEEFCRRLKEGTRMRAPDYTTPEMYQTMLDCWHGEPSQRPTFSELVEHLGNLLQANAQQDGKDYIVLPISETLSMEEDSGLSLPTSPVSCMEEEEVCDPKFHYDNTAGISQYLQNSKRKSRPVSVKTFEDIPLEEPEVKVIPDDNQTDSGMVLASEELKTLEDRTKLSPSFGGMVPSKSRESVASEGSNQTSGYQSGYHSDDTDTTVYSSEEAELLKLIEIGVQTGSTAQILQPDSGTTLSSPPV
The target of a further test is T2, Aurora kinase A (Homo sapiens, UniProt O14965).
T2 sequence (O14965 whole entry): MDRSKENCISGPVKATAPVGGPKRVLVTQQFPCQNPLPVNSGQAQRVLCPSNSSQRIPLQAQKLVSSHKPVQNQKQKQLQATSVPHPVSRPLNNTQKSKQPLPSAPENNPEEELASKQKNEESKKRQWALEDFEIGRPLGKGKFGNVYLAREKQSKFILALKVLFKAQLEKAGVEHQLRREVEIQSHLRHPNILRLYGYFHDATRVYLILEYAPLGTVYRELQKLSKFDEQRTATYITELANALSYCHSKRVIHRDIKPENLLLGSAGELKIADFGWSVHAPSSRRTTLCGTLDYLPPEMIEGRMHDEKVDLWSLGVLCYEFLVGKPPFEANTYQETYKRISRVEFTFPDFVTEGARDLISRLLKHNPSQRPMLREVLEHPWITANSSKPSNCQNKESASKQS
Nature of the test: Inhibition of AURA kinase.

Structures are written as SMILES. Where only a bound is given, the exact number is not on record here.

A word on the Ki: it is a measure of affinity in units of concentration, obtained from inhibition or displacement. For orientation: IC50 means the concentration that gives 50% inhibition. A low value points to higher potency.

Sequence of Mitogen-activated protein kinase 1 (P28482 whole entry): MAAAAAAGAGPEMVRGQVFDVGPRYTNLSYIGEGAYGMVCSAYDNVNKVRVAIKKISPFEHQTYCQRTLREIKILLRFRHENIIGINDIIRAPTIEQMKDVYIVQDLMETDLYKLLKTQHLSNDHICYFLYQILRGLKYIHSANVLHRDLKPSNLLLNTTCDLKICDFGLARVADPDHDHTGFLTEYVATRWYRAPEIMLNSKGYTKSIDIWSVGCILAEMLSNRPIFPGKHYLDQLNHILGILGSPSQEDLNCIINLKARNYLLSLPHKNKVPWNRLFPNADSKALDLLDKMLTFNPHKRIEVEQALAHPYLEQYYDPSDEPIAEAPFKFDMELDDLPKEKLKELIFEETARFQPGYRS
Sequence of Mitogen-activated protein kinase 14 (Q16539 whole entry): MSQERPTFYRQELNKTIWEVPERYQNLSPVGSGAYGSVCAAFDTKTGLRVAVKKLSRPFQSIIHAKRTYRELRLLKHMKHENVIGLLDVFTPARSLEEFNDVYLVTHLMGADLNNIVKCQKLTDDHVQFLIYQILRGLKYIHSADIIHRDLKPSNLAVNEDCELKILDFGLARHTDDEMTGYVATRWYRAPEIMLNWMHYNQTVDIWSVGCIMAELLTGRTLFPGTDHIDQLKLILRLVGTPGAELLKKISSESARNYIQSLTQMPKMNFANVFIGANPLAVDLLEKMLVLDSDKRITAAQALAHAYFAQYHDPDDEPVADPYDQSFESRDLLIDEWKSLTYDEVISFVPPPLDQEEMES

Take `CNC(=O)[C@@H](NC(=O)c1cc(-c2[nH]ncc2-c2cccc(Cl)c2)c[nH]1)c1ccccc1`: the Ki in [1] came out at 2.3 µM; in test [2], 3.9 µM.
`O=C(NOCc1ccccc1)c1cc(-c2[nH]ncc2-c2cccc(Cl)c2)c[nH]1` yielded a Ki in [2] of 2.9 µM.
`O=C(NC(CO)c1ccc(F)c(Cl)c1)c1cc(-c2[nH]ncc2-c2cccc(Cl)c2)c[nH]1` (stereo not given) had a Ki in test [1] of 0.006 µM.
For `O=C(NC(CO)c1ccc(F)c(F)c1)c1cc(-c2n[nH]cc2-c2cccc(Cl)c2)c[nH]1` (stereo not given), the inhibitory constant (Ki) in test [1] was 0.022 µM; in test [2] it was 2.8 µM.
As for `O=C(NC(CO)c1ccccc1F)c1cc(-c2[nH]ncc2-c2cccc(Cl)c2)c[nH]1` (stereo not given), the values for the Ki in [1] and in test [2] were 0.24 µM and 3.1 µM, respectively.
Take `O=C(N[C@H](C(=O)O)c1ccccc1)c1cc(-c2n[nH]cc2-c2cccc(Cl)c2)c[nH]1`: the inhibition constant (Ki) in test [1] was above 5 µM; in [2] it was above 4 µM.
In the same order, the values of `NC(=O)[C@@H](NC(=O)c1cc(-c2[nH]ncc2-c2cccc(Cl)c2)c[nH]1)c1ccccc1` are 0.51 µM and 3.3 µM.
In the same order, the values of `O=C(N[C@@H](CO)c1ccc(F)c(Cl)c1)c1cc(-c2n[nH]cc2-c2cccc(Cl)c2)c[nH]1` are 0.15 µM and above 4 µM.
Take `O=C(NC(CO)c1cccc(F)c1)c1cc(-c2[nH]ncc2-c2cccc(Cl)c2)c[nH]1` (stereo not given): the Ki in test [1] was 0.024 µM; in [2], 3 µM.
Regarding `O=C(c1cc(-c2[nH]ncc2-c2cccc(Cl)c2)c[nH]1)N1CCCC1`, the Ki turned out to be 0.2 µM in [1] and 1.8 µM in [2].
In the same order, the values of `O=C(NC(CO)c1cc(Cl)cc(Cl)c1)c1cc(-c2n[nH]cc2-c2cccc(Cl)c2)c[nH]1` (stereo not given) are 0.007 µM and 3.4 µM.
Take `C[C@@H](NC(=O)c1cc(-c2n[nH]cc2-c2cccc(Cl)c2)c[nH]1)c1ccccc1`: the Ki is 0.1 µM in test [1] and 3.1 µM in [2].
Regarding `CN(Cc1ccccc1)C(=O)c1cc(-c2[nH]ncc2-c2cccc(Cl)c2)c[nH]1`, the Ki was 0.44 µM in [1] and above 4 µM in test [2].
In the same order, the values of `O=C(NCc1ccc(F)c(F)c1)c1cc(-c2n[nH]cc2-c2cccc(Cl)c2)c[nH]1` are 0.04 µM and 0.79 µM.
In [2], `O=C(NCC1CCCO1)c1cc(-c2[nH]ncc2-c2cccc(Cl)c2)c[nH]1` (stereo not given) yielded a Ki of 2.7 µM.
As to `COc1ccc(CNC(=O)c2cc(-c3n[nH]cc3-c3cccc(Cl)c3)c[nH]2)cc1`, the Ki stood at 0.49 µM in test [1] and 0.84 µM in test [2].
Molecule `CCN(C)C(=O)c1cc(-c2n[nH]cc2-c2cccc(Cl)c2)c[nH]1` registered an inhibitory constant (Ki) in test [2] above 4 µM.
For `CN(C)C(=O)c1cc(-c2n[nH]cc2-c2ccccc2)c[nH]1`, in [2], the Ki is above 4 µM.
Same read-out and setting: next, `O=C(N[C@H](CO)c1ccccc1)c1cc(-c2[nH]ncc2-c2cccc(Cl)c2)c[nH]1`: 2.8 µM.
With `O=C(NC1c2ccccc2CC1O)c1cc(-c2[nH]ncc2-c2cccc(Cl)c2)c[nH]1` (stereo not given), the Ki in test [1] is 4 µM; in [2], 3.2 µM.
For `C[C@H](NC(=O)c1cc(-c2n[nH]cc2-c2cccc(Cl)c2)c[nH]1)c1ccccc1`, the values for the inhibition constant Ki in test [1] and in test [2] were 0.66 µM and above 4 µM, respectively.
`O=C(NC(CO)c1ccc(Cl)cc1)c1cc(-c2n[nH]cc2-c2cccc(Cl)c2)c[nH]1` (stereo not given): the results for the Ki in test [1] and in test [2] were 0.014 µM and 2.5 µM, respectively.
In the same order, the values of `O=C(NC(CO)c1ccc(C(F)(F)F)cc1)c1cc(-c2n[nH]cc2-c2cccc(Cl)c2)c[nH]1` (stereo not given) are 0.044 µM and 2.7 µM.
In the same order, the values of `O=C(c1cc(-c2[nH]ncc2-c2cccc(Cl)c2)c[nH]1)N1CCc2ccccc2C1` are 0.51 µM and above 4 µM.
`O=C(NCCc1cccnc1)c1cc(-c2[nH]ncc2-c2cccc(Cl)c2)c[nH]1`: the figures for the Ki in [1] and in test [2] were 0.33 µM and above 4 µM, respectively.
On to `O=C(N[C@H](CO)c1ccc(F)c(Cl)c1)c1cc(-c2n[nH]cc2-c2cccc(Cl)c2)c[nH]1`, for which the Ki is 0.39 µM in [3]; above 4 µM in test [4]; above 4 µM in test [5]; 1.8 µM in test [6]; 0.75 µM in test [7]; above 4 µM in test [2]. Besides, the Ki is above 4 µM in test [8]; 3.3 µM in test [9]; 1.1 µM in test [10]; 3.9 µM in test [11]; above 4 µM on Aurora kinase A. In addition, in the test with COLO 205, 0.54 µM corresponded to half-maximal inhibition (IC50).
In the case of `O=C(NC(CO)c1ccc(F)cc1)c1cc(-c2n[nH]cc2-c2cccc(Cl)c2)c[nH]1` (stereo not given), the inhibition constant Ki in test [1] was 0.063 µM; in test [2] it was above 4 µM.
For `CCN1CCCC1CNC(=O)c1cc(-c2n[nH]cc2-c2cccc(Cl)c2)c[nH]1` (stereo not given), the Ki in test [1] is above 10 µM; in [2] it was above 4 µM.
